We go through four molecules from paper PMC5355235, “FLT3 activating mutations display differential sensitivity to multiple tyrosine kinase inhibitors” (Oncotarget, 2017).

Molecules are shown by their SMILES. pIC50: −log10 of the molar value. Read-outs that look alike come from different tables or passages of the source.

In one experiment the test system is BaF3/ITD cells. Kind of experiment: MTT growth inhibition assay, BaF3 FLT3-ITD cells. The format is cell-based. To be noted: no IL-3, 48 h, read-out: Proliferation IC50. The procedure: (§1) Figure 1 Growth of AL mutants in the presence of FLT3 TKI The BaF3 AL mutants were grown in the absence of IL-3 and analyzed by treatment in increasing concentrations of FLT3 TKI for 48 hours, after which growth inhibition was assessed using the MTT assay. Means are representative of at least three independent experiments.
(§2) The cells were grown in the absence of IL3 and analyzed by treatment in increasing concentrations of FLT3 TKI for 48 hours, after which growth inhibition was assessed using the MTT assay. Each experiment was performed at least three times and representative results are shown.
(§3) Based on Trypan Blue exclusion, 2 × 10^4 viable cells were seeded in quadruplicate in a 96-well microtiter plate in the presence or absence of inhibitor for 48 h. The effect of drug activity on cell viability was measured using the 3-(4,5-Dimethylthiazol-2-yl)-2,5-diphenyltetrazolium bromide (MTT) assay according to the manufacturer's instructions (Roche Applied Science, Indianapolis, IN, USA). Following treatment, cells were incubated for 4 h in MTT followed by dissolution in solubilization buffer overnight. Absorbance was measured at 570 nm on a Bio-Rad plate reader (Hercules, CA, USA). […] Results shown are presented as means and are representative of at least three independent experiments.
For orientation: Tetrazolium dyes change colour on reduction, which living cells bring about.

In experiment [1] the test system is BaF3 FLT3 D835Y mutant cells. Kind of experiment: MTT growth inhibition assay, BaF3 FLT3 D835Y cells. The format is cell-based. To be noted: no IL-3, 48 h, read-out: Proliferation IC50. The procedure:
as §1, §2, §3

In experiment [2] the test system is BaF3 FLT3 D835A mutant cells. The experiment is described as follows: MTT growth inhibition assay, BaF3 FLT3 D835A cells. The format is cell-based. To be noted: BaF3 FLT3 D835A, no IL-3, 48 h, MTT, read-out: Proliferation IC50. The procedure:
as §1, §2, §3

Experiment [3] has as its system BaF3 FLT3 D835G mutant cells. The experiment is described as follows: MTT growth inhibition assay, BaF3 FLT3 D835G cells. The class given is cell-based. To be noted: no IL-3, 48 h, read-out: Proliferation IC50. Here is the method:
as §1, §2, §3

Experiment [4] concerns BaF3 FLT3 D835N mutant cells. The experiment is described as follows: MTT growth inhibition assay, BaF3 FLT3 D835N cells. The format is cell-based. To be noted: no IL-3, 48 h, read-out: Proliferation IC50. Here is the method: as §1, §2, §3
The subject of experiment [5] is BaF3 FLT3 D835L+K mutant cells. Kind of experiment: MTT growth inhibition assay, BaF3 FLT3 D835L+K cells. The class given is cell-based. To be noted: no IL-3, 48 h, read-out: Proliferation IC50. The procedure:
as §1, §2, §3

Experiment [6] relates to BaF3 FLT3 I836L+D mutant cells. The experiment is described as follows: MTT growth inhibition assay, BaF3 FLT3 I836L+D cells. The format is cell-based. To be noted: no IL-3, 48 h, read-out: Proliferation IC50. The procedure: as §1, §2, §3
Experiment [7] deals with BaF3 FLT3 I836S mutant cells. Kind of experiment: MTT growth inhibition assay, BaF3 FLT3 I836S cells. The format is cell-based. To be noted: BaF3 FLT3 I836S, no IL-3, 48 h, MTT, read-out: Proliferation IC50. The procedure:
as §1, §2, §3

Experiment [8] has as its system BaF3 FLT3 I836T mutant cells. Kind of experiment: MTT growth inhibition assay, BaF3 FLT3 I836T cells. The format is cell-based. To be noted: no IL-3, 48 h, read-out: Proliferation IC50. The procedure:
as §1, §2, §3

Experiment [9] deals with BaF3 FLT3 840G+S mutant cells. Kind of experiment: MTT growth inhibition assay, BaF3 FLT3 840G+S cells. The format is cell-based. To be noted: no IL-3, 48 h, read-out: Proliferation IC50. Here is the method:
as §1, §2, §3

Experiment [10] relates to BaF3 FLT3 D593D mutant cells. Kind of experiment: MTT growth inhibition assay, BaF3 FLT3 D593D cells. The format is cell-based. To be noted: no IL-3, 48 h, read-out: Proliferation IC50. The procedure:
as §1, §2, §3

The next experiment addresses T1, FLT3 D835Y (Homo sapiens, UniProt P36888, D835Y).
T1 construct: expressed in transfected cells; host or cells: BaF3
T1 sequence (P36888 27-993 D835Y): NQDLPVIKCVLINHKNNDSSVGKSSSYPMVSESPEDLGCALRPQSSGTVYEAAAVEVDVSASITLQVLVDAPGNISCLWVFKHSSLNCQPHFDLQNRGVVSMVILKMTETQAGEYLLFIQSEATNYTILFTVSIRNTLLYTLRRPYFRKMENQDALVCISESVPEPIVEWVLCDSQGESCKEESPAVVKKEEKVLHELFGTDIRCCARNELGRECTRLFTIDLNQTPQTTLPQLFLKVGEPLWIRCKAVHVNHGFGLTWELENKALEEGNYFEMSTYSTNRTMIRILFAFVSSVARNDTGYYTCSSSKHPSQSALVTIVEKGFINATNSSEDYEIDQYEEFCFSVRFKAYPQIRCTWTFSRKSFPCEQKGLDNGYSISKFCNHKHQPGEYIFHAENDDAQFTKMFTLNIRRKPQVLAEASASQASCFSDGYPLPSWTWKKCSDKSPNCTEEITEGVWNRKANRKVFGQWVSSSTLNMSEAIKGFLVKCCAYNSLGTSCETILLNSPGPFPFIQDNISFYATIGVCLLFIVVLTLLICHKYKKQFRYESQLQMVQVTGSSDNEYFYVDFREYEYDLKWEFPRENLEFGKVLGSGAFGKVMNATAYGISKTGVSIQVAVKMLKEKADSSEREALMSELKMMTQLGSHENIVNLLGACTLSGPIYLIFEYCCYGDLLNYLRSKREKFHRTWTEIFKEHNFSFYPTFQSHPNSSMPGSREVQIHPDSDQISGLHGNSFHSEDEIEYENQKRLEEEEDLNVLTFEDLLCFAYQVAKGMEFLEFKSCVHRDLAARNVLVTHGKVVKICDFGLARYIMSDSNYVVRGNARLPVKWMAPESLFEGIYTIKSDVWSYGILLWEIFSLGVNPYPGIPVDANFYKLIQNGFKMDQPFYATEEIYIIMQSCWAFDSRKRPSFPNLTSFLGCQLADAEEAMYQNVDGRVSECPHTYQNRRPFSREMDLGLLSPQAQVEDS
The experiment is described as follows: FLT3 autophosphorylation, immunoprecipitation/Western blot, D835Y. To be noted: FLT3 D835Y cells, highest concentrations tested, 1 h. The format is cell-based. Here is the method:
Activated FLT3 expression was measured by performing immunoprecipitation, SDS-PAGE and Western blotting as previously described. Specifically, 10^7 cells were washed in medium and treated with inhibitor for 1 h followed by stimulation with 25 ng/ml of FLT3 ligand for 15 minutes where indicated. Cells were washed twice with ice-cold PBS and lysed in 300 µl of NP-40 lysis buffer (150 mM NaCl, 20 mM TrisHCl (pH7.4), 10% glycerol, 1% NP-40, 10 mM EDTA, 100 mM NaF) with 2 mM Na3VO4 and protease inhibitors (Complete Tablets, Roche, Mannheim, Germany) at 4°C for 30 m. Cell lysate was harvested by centrifugation at 13,000 × g for 30 m at 4°C. FLT3 S-18 antibody was incubated with 500 µg lysate overnight at 4°C followed by immunoprecipitation with protein A-agarose beads for 2 h. Beads were washed once in Tris buffered saline with 1% Tween-20 (TBST) and twice in TBS. Samples were boiled in sodium dodecyl sulfate (SDS) sample buffer prior to separating in a 8% SDS-polyacrylamide gel (SDS-PAGE). Proteins were transferred to a polyvinyl diflouride (PVDF) membrane (Millipore, Bedford, MA, USA) and detected by 4G10 phosphotyrosine antibody and anti-FLT3 S-18 antibody. FLT3 was visualized using the Odyssey Infra Red Imaging System from Li-Cor (Lincoln, NE, USA) using AlexaFluor 680 goat anti-mouse and AlexaFluor 800 goat anti-rabbit antibodies. […]
For orientation: In western blotting, separated proteins are transferred to a membrane and probed.

A further experiment deals with FLT3/ITD. The experiment is described as follows: FLT3/ITD autophosphorylation and signaling pathways, Western blot. The format is cell-based. To be noted: FLT3/ITD cells, 1 h, concentration-dependent. The procedure:
Activated FLT3 expression was measured by performing immunoprecipitation, SDS-PAGE and Western blotting as previously described. Specifically, 10^7 cells were washed in medium and treated with inhibitor for 1 h followed by stimulation with 25 ng/ml of FLT3 ligand for 15 minutes where indicated. Cells were washed twice with ice-cold PBS and lysed in 300 µl of NP-40 lysis buffer (150 mM NaCl, 20 mM TrisHCl (pH7.4), 10% glycerol, 1% NP-40, 10 mM EDTA, 100 mM NaF) with 2 mM Na3VO4 and protease inhibitors (Complete Tablets, Roche, Mannheim, Germany) at 4°C for 30 m. Cell lysate was harvested by centrifugation at 13,000 × g for 30 m at 4°C. FLT3 S-18 antibody was incubated with 500 µg lysate overnight at 4°C followed by immunoprecipitation with protein A-agarose beads for 2 h. Beads were washed once in Tris buffered saline with 1% Tween-20 (TBST) and twice in TBS. Samples were boiled in sodium dodecyl sulfate (SDS) sample buffer prior to separating in a 8% SDS-polyacrylamide gel (SDS-PAGE). Proteins were transferred to a polyvinyl diflouride (PVDF) membrane (Millipore, Bedford, MA, USA) and detected by 4G10 phosphotyrosine antibody and anti-FLT3 S-18 antibody. FLT3 was visualized using the Odyssey Infra Red Imaging System from Li-Cor (Lincoln, NE, USA) using AlexaFluor 680 goat anti-mouse and AlexaFluor 800 goat anti-rabbit antibodies. Phosphorylation of the FLT3 downstream signaling mediators, STAT5, AKT and MAP kinase was investigated by loading 50 µg of whole cell lysate and probing with the indicated antibodies. The membrane was washed and incubated in goat anti-rabbit secondary antibody conjugated to horseradish peroxidase followed by enhanced chemiluminescence (ECL). The membrane was subsequently stripped in 200 mM glycine buffer, pH 2.5 with 0.1% Tween-20 and reprobed for STAT5, AKT and MAP kinase expression using the respective antibodies.

A further experiment relates to BaF3 FLT3 D835Y cells. The experiment is described as follows: Engraftment of BaF3 D835Y luciferase cells in BALB/c mice, bioluminescence imaging. The class given is in vivo. To be noted: 10 mg/kg once daily oral gavage, day 5 to day 9. The procedure: On day 5 following transplantation, the level of engraftment was assessed by imaging mice for bioluminescence on an IVIS Spectrum imager. […] This experiment was repeated three times.
Cells were sorted for GFP and CD135 expression on a FACS AriaII cytometer using FACSDiva software. For engraftment, 2 ×10^6 cells were injected via tail vein into BALB/c mice (Jackson Laboratories, Bar Harbor, ME, USA) (day 0). […] [36, 37] […] Mice were imaged by intraperitoneal injection of luciferin (3 mg) and visualizing on an IVIS Spectrum imager (Caliper LifeSciences, Hopkinton, MA, USA) using Living Image software for analysis on day 5 following inoculation to monitor engraftment and on day 9 to assess drug effect. All animal procedures were conducted in accordance with the policy of the Johns Hopkins University School of Medicine Animal Care and Use Committee.

Take `COc1cc(Nc2ncc(F)c(Nc3ccc4c(n3)NC(=O)C(C)(C)O4)n2)cc(OC)c1OC` [R406]: the pIC50 in the experiment with BaF3/ITD cells is 6.78; in [1] it was < 6.70; in [2], < 6.70; in experiment [3], 6.85; in experiment [4], 6.82; in experiment [5], < 6.70. The pIC50 in experiment [6] was < 6.70; in [7], < 6.70; in [8], 6.82; in [9], < 6.70; in [10] it was < 6.70.

Consider `CNC(=O)c1cc(Oc2ccc(NC(=O)Nc3ccc(Cl)c(C(F)(F)F)c3)cc2)ccn1` [Sorafenib], for which the pIC50 in the experiment with BaF3/ITD cells (Mus musculus) was 7.73; in experiment [1] (Mus musculus) it was < 5.70; in experiment [2] (Mus musculus), < 6.70; in experiment [3] (Mus musculus) it was 7.46; in experiment [4] (Mus musculus) it was 7.50; in experiment [5] (Mus musculus) it was < 6.70. The pIC50 is < 6.70 in experiment [6] (Mus musculus); 7.99 in experiment [7] (Mus musculus); 7.32 in [8] (Mus musculus); 8.30 in experiment [9] (Mus musculus); < 6.70 in experiment [10] (Mus musculus). In addition, the “Inhibition of FLT3 autophosphorylation” value on FLT3 D835Y is recorded as “markedly reduced or absent inhibition”. Also, the “Inhibition of FLT3 autophosphorylation and phosphorylation of STAT5, AKT and Map kinase” value in the experiment on FLT3/ITD is “inhibited FLT3 autophosphorylation”. In addition, the “Leukemic burden (bioluminescence) on day 9” value in the experiment with BaF3 FLT3 D835Y cells is given as “clear progression of leukemia”.

With `CCN(CC)CCNC(=O)c1c(C)[nH]c(/C=C2\C(=O)Nc3ccc(F)cc32)c1C` [Sunitinib], the pIC50 in the experiment on BaF3/ITD cells (Mus musculus) is 8.27; in experiment [1] (Mus musculus), < 7.00; in [2] (Mus musculus) it was < 6.70; in experiment [3] (Mus musculus) it was 7.32; in experiment [4] (Mus musculus), 7.33; in experiment [5] (Mus musculus) it was < 6.70. For the same molecule, the pIC50 is < 6.70 in experiment [6] (Mus musculus), < 6.70 in [7] (Mus musculus), 8.40 in experiment [9] (Mus musculus) and < 6.70 in experiment [10] (Mus musculus).

Consider `CNC(=O)[C@@]1(N)C[C@H]2O[C@]1(C)n1c3ccccc3c3c4c(c5c6ccccc6n2c5c31)C(=O)NC4` [TTT-3002], for which the pIC50 with BaF3/ITD cells is > 9.00; in experiment [1], 8.39; in experiment [2], 8.89; in experiment [3], > 9.00; in experiment [4] it was > 9.00; in [5], 8.17. Also, the pIC50 in experiment [6] is 7.93; in experiment [7], 8.05; in experiment [8], 8.01; in [9], > 9.00; in experiment [10] it was 8.55.
